Patent publication US20260309717A1, “PROXIMITY INDUCING SYSTEM AND USES THEREOF” (SORBONNE UNIVERSITE, priority 2022, published 2026)

Columns and labels:
[1] = molecular target: T1, ^FIREmate and ^FIREtag (TOM20-ECFP-^FIREmate / mCherry-^FIREtag) (Halorhodospira halophila, UniProt P16113, A30V/C69G/D97P/F96I, form not given/G21E/G25R/K17N/M100R/M109L/Q41L/Q99S/S72T/T101G/V83A/Y94W/Y98T); assay: Stability of the ternary assembly over time at mitochondria, time-lapse confocal microscopy, U2OS cells; assay type: cell-based; settings: 10 μM; 1 image every 2 minutes
T1 construct: TOM20(1-34)-ECFP-FIREmate and mCherry-FIREtag in HeLa or U2OS cells
T1 sequence (P16113 1-114 A30V/C69G/D97P/F96I/G21E/G25R/K17N/M100R/M109L/Q41L/Q99S/S72T/T101G/V83A/Y94W/Y98T): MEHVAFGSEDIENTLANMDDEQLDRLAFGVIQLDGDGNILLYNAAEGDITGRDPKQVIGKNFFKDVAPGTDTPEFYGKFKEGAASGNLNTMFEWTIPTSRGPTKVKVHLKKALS
Protocol: FIGS. 4A-D illustrate the recruitment over time of cytoplasmic proteins to mitochondria with the proximity inducing system described herein. (4A, C) HeLa cells co-expressing mCherry-^FIREtag and Tom20-ECFP-^FIREmate were treated with 10 μM HBR-2,5DM and imaged by time-lapse confocal microscopy at 1 image per 5 seconds. (4B, D) U2OS cells co-expressing mCherry-^FIREtag and Tom20-ECFP-^FIREmate were treated with 10 μM HBR-2,5DM and imaged by time-lapse confocal microscopy at 1 image every 2 minutes. FIG. 4A is a representative time-lapse of the HeLa cells from the addition of HBR-2,5DM at 0 sec (ex/em 488/508-570 nm). […] Scale bars are 20 μm. FIG. 4B is a representative time-lapse of the U2OS cells from the addition of HBR-2,5DM at 0 min (mCherry: ex/em 561/606-675 nm; FIRE: ex/em 488/508-570 nm; ECFP: ex/em 445/455-499 nm). […] Scale bars are 20 μm. FIG. 4C is a graph showing the temporal evolution of the FIRE signal detected in HeLa cells upon addition of HBR-2,5DM at 0 sec. […] FIG. 4D is a graph showing the temporal evolution of the FIRE signal detected in U2OS cells upon addition of HBR-2,5DM at 0 min. […]
The confocal micrographs were acquired on a Zeiss LSM 980 Laser Scanning Microscope equipped with a plan apochromat 63x/1.4 NA oil immersion objective. […] The images were analyzed using Icy (2.4.0.0) and Fiji (Image J). […]

[2] = molecular target: T2, mCherry-^FIREtag / ^FIREmate-ECFP-Giantin (Halorhodospira halophila, UniProt P16113, A30V/C69G/D97P/F96I, form not given/G21E/G25R/K17N/M100R/M109L/Q41L/Q99S/S72T/T101G/V83A/Y94W/Y98T); assay: Recruitment of cytoplasmic protein to the Golgi apparatus, HeLa cells; assay type: cell-based; settings: 10 μM
T2 construct: FIREmate-ECFP-Giantin(3131-3259) and mCherry-FIREtag in HeLa cells
T2 sequence (P16113 1-114 A30V/C69G/D97P/F96I/G21E/G25R/K17N/M100R/M109L/Q41L/Q99S/S72T/T101G/V83A/Y94W/Y98T): T1 sequence (P16113 1-114 A30V/C69G/D97P/F96I/G21E/G25R/K17N/M100R/M109L/Q41L/Q99S/S72T/T101G/V83A/Y94W/Y98T)
Protocol: FIGS. 6A-E illustrate the recruitment of cytoplasmic proteins to the Golgi apparatus with the proximity inducing system described herein. FIG. 6A is a representation of the experimental design wherein HeLa cells co-expressing mCherry-^FIREtag and ^FIREmate-ECFP-Giantin were treated with 10 µM of match (either HBR-2,5DM or HMBR), and imaged by time-lapse confocal microscopy. FIGS. 6B-C are graphs showing the temporal evolution of the FIRE signal detected upon addition at 0 min of HBR-2,5DM (match1-6B) or HMBR (match2-6C). Data represents the mean values±SD of 10 cells from n=3 independent experiments (6B, D), or of 12 cells from n=3 independent experiments (6C, E). FIGS. 6D-E are sets of representative confocal micrographs of cells before (0 min) and after (5 min) addition of HBR-2,5DM (match1-6D) or HMBR (match2-6E) (mCherry: ex/em 561/606-675 nm; FIRE: ex/em 488/508-570 nm; ECFP: ex/em 445/455-499 nm). […] Scale bars are 20 μm.
The confocal micrographs were acquired on a Zeiss LSM 980 Laser Scanning Microscope equipped with a plan apochromat 63x/1.4 NA oil immersion objective. ZEN software was used to collect the data. The images were analyzed using Icy (2.4.0.0) and Fiji (Image J). In short, to track fluorescence signal in a specific organelle, a ROI (region of interest) was determined by masking the signal in the ECFP (Enhanced Cyan Fluorescent Protein) channel with the plug-in HK-means with the following parameters: intensity class equals 100, minimum object size (pixels or px) equals 500, maximum object size (px) equals 1500-3000. The signal intensity of the ROI was tracked over time for each channel by using plug-in Active Contours. The background signal was subtracted. Data were processed using GraphPad Prism v9.3.0.
To further evaluate the scope of the proximity inducing system described herein and show its versatility, ^FIREmate was anchored at the membrane of various organelles or cellular structures so that ^FIREmate faced the cytosol. ^FIREmate was thus fused: • to the N-terminus of the transmembrane domain (amino acid residues at positions 3131-3259) of Giantin for location at the cis-medial rims of the Golgi apparatus (FIG. 6A), • to the N-terminus of the transmembrane domain (amino acid residues at positions 100-134) of the cytochrome b5 (Cb5) for location at the endoplasmic reticulum membrane (FIG. 7A), and • to the C-terminus of the Lyn11 inner membrane targeting sequence for location at the plasma membrane (FIG. 8A).
For each construct, an ECFP was inserted between ^FIREmate and the other protein domain/sequence to monitor the localization of the resulting fusion protein (blue fluorescence). Each fusion protein was co-expressed in mammalian cells (HeLa cells or HEK293 cells as indicated) together with mCherry-^FIREtag (red fluorescence). […]

Compound: Cc1cc(/C=C2\SC(=S)NC2=O)c(C)cc1O [HBR-2,5DM, (Z)-5-(4-hydroxy-2,5-dimethylbenzylidene)-2-thioxo-1,3-thiazolidin-4-one]
- duration of fluorescence detected (stability of the ternary fluorescent assembly) [1]: more than 25 minutes
- FIRE signal at the Golgi apparatus [2]: simultaneous appearance of green fluorescence
- translocation of mCherry-^FIREtag to the Golgi apparatus [2]: rapid translocation of mCherry-^FIREtag to the organelle
